Reference: patent publication US20080274892A1, “Novel Haloalkylsulfonanilide Derivative, Herbicide, and Method of Use Thereof” (priority 2005, published 2008)

Key:
[1] = tested on: paddy rice plant (cultivar: Nihonbare); assay: Test Example 3: phytotoxicity test for transplanted paddy rice plant; type: in vivo; conditions: transplanted rice, 21 days after treatment
How it was run: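 Clay loam soil was placed in a 75 cm^2 plastic pot and flooded to a water depth of 5 cm. Two Nihonbare paddy rice plants at the two-leaf stage were transplanted 1 cm deep and grown in a hot house. After treatment, pots stayed in the hot house for 21 days, and phytotoxicity was then graded against an untreated control.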

bulrush [2] = assay: Test Example 1: herbicidal efficacy on rice paddy weeds pre-emergence; type: in vivo, Scirpus juncoides; conditions: 21 days
barnyard glass = assay: Test Example 2: herbicidal efficacy on rice paddy weeds post-emergence; type: in vivo, Echinochloa crus-galli; conditions: post-emergence, one leaf stage, 21 days after treatment
How it was run: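 Plastic pots of 75 cm^2 were filled with clay loam soil and sown with barnyard glass and bulrush seeds, then topped with 75 cm^3 soil containing false pimpernel seeds. The pots were flooded to 5 cm water depth and held in a hot house. Twenty-one days after treatment, herbicidal efficacy was graded against an untreated control.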

false pimpernel [3] = assay: as above; type: in vivo, Lindernia pyxidaria; conditions: post-emergence, one leaf stage, 21 days after treatment
false pimpernel [4] = assay: Test Example 1: herbicidal efficacy on rice paddy weeds pre-emergence; type: in vivo, Lindernia pyxidaria; conditions: 21 days
[5] = tested on: transplanted paddy rice plant and Bulrush; assay: Test Example 5: selectivity between transplanted paddy rice plant and weeds; type: in vivo; conditions: (highest dosage with no phytotoxicity to paddy rice)/(lowest dosage with effective level 4 on Bulrush); rice 3000-100 g/ha, Bulrush 300-10 g/ha; 21 days
How it was run: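 Transplanted paddy rice was treated at 3000, 1000, 300 and 100 g/ha active ingredient for phytotoxicity, and post-emergence bulrush at 300, 100, 30 and 10 g/ha. Plants were kept in a hothouse for 21 days. Growth inhibition versus untreated control was scored 0–4 (0%, 1–39%, 40–69%, 70–89%, 90–100%).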

bulrush [6] = assay: Test Example 2: herbicidal efficacy on rice paddy weeds post-emergence; type: in vivo, Scirpus juncoides; conditions: post-emergence, one leaf stage, 21 days after treatment
bulrush [7] = assay: Test Example 4: low dosage test for rice paddy weeds; type: in vivo, Scirpus juncoides; conditions: 300 g/ha as an active ingredient; plants treated at the one leaf stage; 21 days after treatment; vs untreated control
How it was run: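 Bulrush sown in clay loam pots, flooded to 5 cm water in a hot house, treated at the one-leaf stage with formulated compound at 300 g/ha. Efficacy scored 0–4 against untreated control 21 days after treatment (4 = 90–100%, 0 = 0% inhibition).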

[8] = dosage 1000 g/ha, treated 5 days after transplantation

Compound	Phytotoxicity to paddy rice [1, 8]	Bulrush pre (herbicidal efficacy grade) (bulrush [2]; dosage 1000 g/ha)	Burnyard grass post (herbicidal efficacy grade) (barnyard glass; dosage 1000 g/ha)	False pimpernel post (herbicidal efficacy grade) (false pimpernel [3]; dosage 1000 g/ha)	False pimpernel pre (herbicidal efficacy grade) (false pimpernel [4]; dosage 1000 g/ha)	Selective Index [5]	Bulrush post (herbicidal efficacy grade) (bulrush [6]; dosage 1000 g/ha)	Herbicide effect to Bulrush (bulrush [7])	Phytotoxicity to paddy rice ([1]; dosage 300 g/ha)	Bulrush pre (herbicidal efficacy grade) (bulrush [2]; dosage 300 g/ha)	Burnyard grass post (herbicidal efficacy grade) (barnyard glass; dosage 300 g/ha)	False pimpernel post (herbicidal efficacy grade) (false pimpernel [3]; dosage 300 g/ha)	False pimpernel pre (herbicidal efficacy grade) (false pimpernel [4]; dosage 300 g/ha)	Bulrush post (herbicidal efficacy grade) (bulrush [6]; dosage 300 g/ha)
CCC1(C(C)C)CN(Cc2ccccc2N(C(=O)OCC(C)C)S(=O)(=O)C(F)(F)F)C(=O)O1 (stereo not drawn) [1-133]	1 (1%-39% of herbicidal efficacy or phytotoxicity)	4 (90%-100% of herbicidal efficacy or phytotoxicity)	4 (90%-100% of herbicidal efficacy or phytotoxicity)	4 (90%-100% of herbicidal efficacy or phytotoxicity)	4 (90%-100% of herbicidal efficacy or phytotoxicity)	10	4 (90%-100% of herbicidal efficacy or phytotoxicity)	4 (90%-100% of herbicidal efficacy or phytotoxicity)						
CCC1(CC)CN(Cc2ccccc2N(C(=O)OCCOC)S(=O)(=O)C(F)(F)F)C(=O)O1 [1-134]	1 (1%-39% of herbicidal efficacy or phytotoxicity)	4 (90%-100% of herbicidal efficacy or phytotoxicity)	4 (90%-100% of herbicidal efficacy or phytotoxicity)	4 (90%-100% of herbicidal efficacy or phytotoxicity)	4 (90%-100% of herbicidal efficacy or phytotoxicity)	10	4 (90%-100% of herbicidal efficacy or phytotoxicity)	4 (90%-100% of herbicidal efficacy or phytotoxicity)						
CC1(C(F)(F)F)CN(Cc2ccccc2NS(=O)(=O)C(F)(F)F)C(=O)O1 (stereo not drawn) [1-135]						3		3 (70%-89% of herbicidal efficacy or phytotoxicity)	1 (1%-39% of herbicidal efficacy or phytotoxicity)	4 (90%-100% of herbicidal efficacy or phytotoxicity)	2 (40%-69% of herbicidal efficacy or phytotoxicity)	4 (90%-100% of herbicidal efficacy or phytotoxicity)	4 (90%-100% of herbicidal efficacy or phytotoxicity)	4 (90%-100% of herbicidal efficacy or phytotoxicity)
CC(C)COC(=O)N(c1ccccc1CN1CC(C)(C(F)(F)F)OC1=O)S(=O)(=O)C(F)(F)F (stereo not drawn) [1-136]	1 (1%-39% of herbicidal efficacy or phytotoxicity)	4 (90%-100% of herbicidal efficacy or phytotoxicity)	4 (90%-100% of herbicidal efficacy or phytotoxicity)	4 (90%-100% of herbicidal efficacy or phytotoxicity)	4 (90%-100% of herbicidal efficacy or phytotoxicity)	10	4 (90%-100% of herbicidal efficacy or phytotoxicity)	4 (90%-100% of herbicidal efficacy or phytotoxicity)						
COC(=O)N(c1ccccc1CN1CC(C)(c2ccccc2)OC1=O)S(=O)(=O)C(F)(F)F (stereo not drawn) [1-142]	1 (1%-39% of herbicidal efficacy or phytotoxicity)	4 (90%-100% of herbicidal efficacy or phytotoxicity)	4 (90%-100% of herbicidal efficacy or phytotoxicity)	4 (90%-100% of herbicidal efficacy or phytotoxicity)	4 (90%-100% of herbicidal efficacy or phytotoxicity)	≧30	4 (90%-100% of herbicidal efficacy or phytotoxicity)	4 (90%-100% of herbicidal efficacy or phytotoxicity)						
COC(=O)N(c1ccccc1CN1CC(C)(C(F)(F)F)OC1=O)S(=O)(=O)C(F)(F)F (stereo not drawn) [1-143]	1 (1%-39% of herbicidal efficacy or phytotoxicity)	4 (90%-100% of herbicidal efficacy or phytotoxicity)	4 (90%-100% of herbicidal efficacy or phytotoxicity)	4 (90%-100% of herbicidal efficacy or phytotoxicity)	4 (90%-100% of herbicidal efficacy or phytotoxicity)	10	4 (90%-100% of herbicidal efficacy or phytotoxicity)	4 (90%-100% of herbicidal efficacy or phytotoxicity)						
CCCC1(CC)CN(Cc2ccccc2N(C(=O)OC)S(=O)(=O)C(F)(F)F)C(=O)O1 (stereo not drawn) [1-144]	1 (1%-39% of herbicidal efficacy or phytotoxicity)	4 (90%-100% of herbicidal efficacy or phytotoxicity)	4 (90%-100% of herbicidal efficacy or phytotoxicity)	4 (90%-100% of herbicidal efficacy or phytotoxicity)	4 (90%-100% of herbicidal efficacy or phytotoxicity)	10	4 (90%-100% of herbicidal efficacy or phytotoxicity)	4 (90%-100% of herbicidal efficacy or phytotoxicity)						
CCC1(C(C)C)CN(Cc2ccccc2N(C(=O)OC)S(=O)(=O)C(F)(F)F)C(=O)O1 (stereo not drawn) [1-145]	2 (40%-69% of herbicidal efficacy or phytotoxicity)	4 (90%-100% of herbicidal efficacy or phytotoxicity)	4 (90%-100% of herbicidal efficacy or phytotoxicity)	4 (90%-100% of herbicidal efficacy or phytotoxicity)	4 (90%-100% of herbicidal efficacy or phytotoxicity)	10	4 (90%-100% of herbicidal efficacy or phytotoxicity)	4 (90%-100% of herbicidal efficacy or phytotoxicity)						
COCC1(C)CN(Cc2ccccc2N(C(=O)OCC(C)(C)C)S(=O)(=O)C(F)(F)F)C(=O)O1 (stereo not drawn) [1-146]	1 (1%-39% of herbicidal efficacy or phytotoxicity)	4 (90%-100% of herbicidal efficacy or phytotoxicity)	4 (90%-100% of herbicidal efficacy or phytotoxicity)	4 (90%-100% of herbicidal efficacy or phytotoxicity)	4 (90%-100% of herbicidal efficacy or phytotoxicity)	10	4 (90%-100% of herbicidal efficacy or phytotoxicity)	4 (90%-100% of herbicidal efficacy or phytotoxicity)						
COC(=O)N(c1ccccc1CN1C(=O)OC(C)(C)C1C)S(=O)(=O)C(F)(F)F (stereo not drawn) [1-148]	3 (70%-89% of herbicidal efficacy or phytotoxicity)	4 (90%-100% of herbicidal efficacy or phytotoxicity)	4 (90%-100% of herbicidal efficacy or phytotoxicity)	4 (90%-100% of herbicidal efficacy or phytotoxicity)	4 (90%-100% of herbicidal efficacy or phytotoxicity)	≧30	4 (90%-100% of herbicidal efficacy or phytotoxicity)	4 (90%-100% of herbicidal efficacy or phytotoxicity)						
COC(=O)N(c1ccccc1CN1CC2(CCCCC2)OC1=O)S(=O)(=O)C(F)(F)F [1-149]	2 (40%-69% of herbicidal efficacy or phytotoxicity)	4 (90%-100% of herbicidal efficacy or phytotoxicity)	4 (90%-100% of herbicidal efficacy or phytotoxicity)	4 (90%-100% of herbicidal efficacy or phytotoxicity)	4 (90%-100% of herbicidal efficacy or phytotoxicity)	10	4 (90%-100% of herbicidal efficacy or phytotoxicity)	4 (90%-100% of herbicidal efficacy or phytotoxicity)						
COC(=O)N(c1ccccc1CN1C(=O)OCC1C)S(=O)(=O)C(F)(F)F (stereo not drawn) [1-150]	2 (40%-69% of herbicidal efficacy or phytotoxicity)	4 (90%-100% of herbicidal efficacy or phytotoxicity)	4 (90%-100% of herbicidal efficacy or phytotoxicity)	4 (90%-100% of herbicidal efficacy or phytotoxicity)	4 (90%-100% of herbicidal efficacy or phytotoxicity)	10	4 (90%-100% of herbicidal efficacy or phytotoxicity)	4 (90%-100% of herbicidal efficacy or phytotoxicity)						
